The term EC50 denotes the midpoint of the concentration-response curve.

Consider 13 molecules from patent US8772300B2, “Phenyl or pyridinyl-ethynyl derivatives” (Hoffmann-La Roche Inc., priority 2011, dated 2014).

For the assay, the target named is T1, human mGlu5a receptor (Homo sapiens, UniProt P41594).
T1 construct: expressed in transfected cells
Nature of the assay: Intracellular Ca2+ mobilization assay (mGlu5 PAM). Format: cell-based. The following applies: for Emax: HEK293, maximal response in % of the maximal stimulatory effect obtained with saturating concentrations of L-glutamate, HEK-293 human mGlu5a cells, read-out: Eff. (%); for EC50: HEK-293 cells stably transfected with human mGlu5a receptor, L-glutamate added at EC20 (typically around 80 μM) after 10-30 min pre-incubation with test compound, read-out: EC50 (nM) mGlu5PAM. The procedure:
A monoclonal HEK-293 cell line stably transfected with a cDNA encoding for the human mGlu5a receptor was generated; for the work with mGlu5 Positive Allosteric Modulators (PAMs), a cell line with low receptor expression levels and low constitutive receptor activity was selected to allow the differentiation of agonistic versus PAM activity. Cells were cultured according to standard protocols (Freshney, 2000) in Dulbecco's Modified Eagle Medium with high glucose supplemented with 1 mM glutamine, 10% (vol/vol) heat-inactivated bovine calf serum, Penicillin/Streptomycin, 50 μg/ml hygromycin and 15 μg/ml blasticidin (all cell culture reagents and antibiotics from Invitrogen, Basel, Switzerland).
About 24 hrs before an experiment, 5×10^4 cells/well were seeded in poly-D-lysine coated, black/clear-bottomed 96-well plates. The cells were loaded with 2.5 μM Fluo-4AM in loading buffer (1×HBSS, 20 mM HEPES) for 1 hr at 37° C. and washed five times with loading buffer. The cells were transferred into a Functional Drug Screening System 7000 (Hamamatsu, Paris, France), and 11 half logarithmic serial dilutions of test compound at 37° C. were added and the cells were incubated for 10-30 min with on-line recording of fluorescence. Following this pre-incubation step, the agonist L-glutamate was added to the cells at a concentration corresponding to EC20 (typically around 80 μM) with on-line recording of fluorescence; in order to account for day-to-day variations in the responsiveness of cells, the EC20 of glutamate was determined immediately ahead of each experiment by recording of a full dose-response curve of glutamate.
Responses were measured as peak increase in fluorescence minus basal (i.e. fluorescence without addition of L-glutamate), normalized to the maximal stimulatory effect obtained with saturating concentrations of L-glutamate. Graphs were plotted with the % maximal stimulatory using XLfit, a curve fitting program that iteratively plots the data using Levenburg Marquardt algorithm. The single site competition analysis equation used was y=A+((B−A)/(1+((x/C)D))), where y is the % maximal stimulatory effect, A is the minimum y, B is the maximum y, C is the EC50, x is the log 10 of the concentration of the competing compound and D is the slope of the curve (the Hill Coefficient). From these curves the EC50 (concentration at which half maximal stimulation was achieved), the Hill coefficient as well as the maximal response in % of the maximal stimulatory effect obtained with saturating concentrations of L-glutamate were calculated.
A depression of the signal observed after addition of the EC20 concentration of L-glutamate was indicative of an inhibitory activity of the test compound.

T1 sequence (P41594 21-1180 isoform P41594-2 limits assumed): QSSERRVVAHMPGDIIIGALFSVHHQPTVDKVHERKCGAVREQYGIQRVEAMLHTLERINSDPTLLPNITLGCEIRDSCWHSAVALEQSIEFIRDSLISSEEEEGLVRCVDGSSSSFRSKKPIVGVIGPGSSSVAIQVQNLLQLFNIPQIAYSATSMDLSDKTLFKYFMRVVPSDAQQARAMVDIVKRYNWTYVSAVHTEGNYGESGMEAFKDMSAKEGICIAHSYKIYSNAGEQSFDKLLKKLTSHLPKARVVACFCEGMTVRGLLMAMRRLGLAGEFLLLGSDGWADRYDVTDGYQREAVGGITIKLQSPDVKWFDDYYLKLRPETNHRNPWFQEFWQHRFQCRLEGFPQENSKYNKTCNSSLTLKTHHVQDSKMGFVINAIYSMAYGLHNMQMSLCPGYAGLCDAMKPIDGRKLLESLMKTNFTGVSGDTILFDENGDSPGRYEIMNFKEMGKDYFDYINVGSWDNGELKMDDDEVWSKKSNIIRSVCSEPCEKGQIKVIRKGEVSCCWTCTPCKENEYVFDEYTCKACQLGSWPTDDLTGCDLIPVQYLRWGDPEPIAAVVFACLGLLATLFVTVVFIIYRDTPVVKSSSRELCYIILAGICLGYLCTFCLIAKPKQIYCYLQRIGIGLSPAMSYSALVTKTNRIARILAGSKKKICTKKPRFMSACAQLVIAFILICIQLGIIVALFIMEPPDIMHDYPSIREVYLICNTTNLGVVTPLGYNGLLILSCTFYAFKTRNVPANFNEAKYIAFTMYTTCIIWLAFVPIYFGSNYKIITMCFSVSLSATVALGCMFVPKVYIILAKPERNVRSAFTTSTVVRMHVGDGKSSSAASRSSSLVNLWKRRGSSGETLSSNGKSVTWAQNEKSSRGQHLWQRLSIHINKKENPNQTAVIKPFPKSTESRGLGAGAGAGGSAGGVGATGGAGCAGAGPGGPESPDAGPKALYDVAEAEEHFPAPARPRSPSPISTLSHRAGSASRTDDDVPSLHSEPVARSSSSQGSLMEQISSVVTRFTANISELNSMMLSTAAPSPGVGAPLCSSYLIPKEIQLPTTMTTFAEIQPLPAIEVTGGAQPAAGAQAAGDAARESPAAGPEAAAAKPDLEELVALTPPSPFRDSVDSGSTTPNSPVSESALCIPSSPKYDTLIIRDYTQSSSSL

For the molecule `Cc1cccc(C#Cc2ccc(C(=O)N(C)C3(C(F)(F)F)CC3)nc2)c1` [Example 34, 5-m-Tolylethynyl-pyridine-2-carboxylic Acid methyl-(1-trifluoromethyl-cyclopropyl)-amide], the Emax came to 46% and the EC50 amounted to 27 nM.

Consider `CC1(C)CN(C(=O)c2ccc(C#Cc3cccc(F)c3)cn2)CCO1` [Example 35, (2,2-Dimethyl-morpholin-4-yl)-[5-(3-fluoro-phenylethynyl)-pyridin-2-yl]-methanone], for which the Emax worked out at 57% and the EC50 is 46 nM.

As for `CC1(C)CN(C(=O)c2ccc(C#Cc3cc(F)ccc3F)cn2)CCO1` [Example 36, [5-(2,5-Difluoro-phenylethynyl)-pyridin-2-yl]-(2,2-dimethyl-morpholin-4-yl)-methanone], the Emax was 44% and the EC50 turned out to be 56 nM.

With `CC1(O)CCN(C(=O)c2ccc(C#Cc3cccc(F)c3)cn2)CC1` [Example 37, [5-(3-Fluoro-phenylethynyl)-pyridin-2-yl]-(4-hydroxy-4-methyl-piperidin-1-yl)-methanone], the Emax is 38% and the EC50 stood at 79 nM.

Consider `CN(C(=O)c1ncc(C#Cc2cccc(F)c2)cc1F)C1(C)CC1` [Example 42, 3-Fluoro-5-(3-fluoro-phenylethynyl)-pyridine-2-carboxylic Acid methyl-(1-methyl-cyclopropyl)-amide], for which the Emax is 35% and the EC50 was 33 nM.

For `CN(C(=O)c1ncc(C#Cc2ccccc2)cc1Cl)C(C)(C)C` [Example 43, 3-Chloro-5-phenylethynyl-pyridine-2-carboxylic Acid tert-butyl-methyl-amide], the Emax was 69% and the EC50 stood at 36 nM.

`CN(C(=O)c1ncc(C#Cc2cccc(F)c2)cn1)C1(C(F)(F)F)CC1` [Example 44, 5-(3-Fluoro-phenylethynyl)-pyrimidine-2-carboxylic Acid methyl-(1-trifluoromethyl-cyclopropyl)-amide]: the Emax was 68% and the EC50 was found to be 42 nM.

Consider `O=C(c1ncc(C#Cc2ccccc2)cn1)N1CC(F)(F)C1` [Example 45, (3,3-Difluoro-azetidin-1-yl)-(5-phenylethynyl-pyrimidin-2-yl)-methanone], for which the Emax was 51% and the EC50 was 62 nM.

Regarding `CC1(C)CCCN(C(=O)c2ncc(C#Cc3ccccc3)cn2)C1` [Example 46, (3,3-Dimethyl-piperidin-1-yl)-(5-phenylethynyl-pyrimidin-2-yl)-methanone], the Emax came out at 59% and the EC50 worked out at 50 nM.

For `CN(C(=O)c1ncc(C#Cc2ccccc2)cc1F)C1(C)COC1` [Example 50, 3-Fluoro-5-phenylethynyl-pyridine-2-carboxylic Acid methyl-(3-methyl-oxetan-3-yl)-amide], the Emax came out at 67% and the EC50 turned out to be 40 nM.

As to `CN(C(=O)c1ncc(C#Cc2ccccc2)cc1C#N)C(C)(C)C` [Example 52, 3-Cyano-5-phenylethynyl-pyridine-2-carboxylic Acid tert-butyl-methyl-amide], the Emax was 96% and the concentration for a half-maximal effect (EC50) is 34 nM.

Take `CN(C(=O)c1ccc(C#Cc2cncc(Cl)c2)cn1)C1(C(F)(F)F)CC1` [Example 53, 5-(5-Chloro-pyridin-3-ylethynyl)-pyridine-2-carboxylic Acid methyl-(1-trifluoromethyl-cyclopropyl)-amide]: the Emax was determined as 57% and the EC50 was 44 nM.

Regarding `CC(C)(NC(=O)c1ccc(C#Cc2ccnc(Cl)c2)cn1)C(F)(F)F` [Example 54, 5-(2-Chloro-pyridin-4-ylethynyl)-pyridine-2-carboxylic Acid (2,2,2-trifluoro-1,1-dimethyl-ethyl)-amide], the Emax turned out to be 80% and the EC50 came to 37 nM.
